Source: paper PMC11435058, “Synthesis of New Thiazole-Privileged Chalcones as Tubulin Polymerization Inhibitors with Potential Anticancer Activities” (Pharmaceuticals, 2024)
Read-outs that look alike come from different tables or passages of the source.

Experiments:
MDA-MB-468 = assay: NCI-60 anticancer screen (SRB; single dose and five doses); type: cell-based, human; details: Homo sapiens, 48 h; MDA-MB-468; dose of 10 μM; read-out: Growth Percentage
In short: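 NCI panel of about 60 human tumor cell lines treated with compound at a single concentration (10μM) for 48 h. Growth measured by SRB protein staining and expressed as percent growth of treated versus untreated control cells.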

[1] = system: 60 human tumor cell lines panel; assay: NCI-60 anticancer screen, whole panel (means and ranges over the cell lines); type: cell-based; details: Homo sapiens, 48 h
SNB-19 = assay: cells; details: Homo sapiens, SNB-19, 48 h, read-out: Growth Percentage
HL-60(TB) = assay: NCI-60 anticancer screen (SRB; single dose and five doses); details: Homo sapiens, HL-60, 48 h, read-out: Growth Percentage
MOLT-4 = assay: as above; details: Homo sapiens, MOLT-4, 48 h, read-out: Growth Percentage
NCI-H522 = assay: as above; details: Homo sapiens, NCI-H522, 48 h, read-out: Growth Percentage
SW-620 = assay: as above; details: Homo sapiens, SW-620, 48 h, read-out: Growth Percentage
SF-268 = assay: as above; details: Homo sapiens, SF-268, 48 h, read-out: Growth Percentage
SF-539 = assay: as above; details: Homo sapiens, SF-539, 48 h, read-out: Growth Percentage
U251 = assay: as above; details: Homo sapiens, U-251, 48 h, read-out: Growth Percentage
MALME-3M = assay: as above; details: Homo sapiens, 48 h, read-out: Growth Percentage
M14 = assay: as above; details: Homo sapiens, M14, 48 h, read-out: Growth Percentage
SK-MEL-2 = assay: as above; details: Homo sapiens, SK-MEL-2, 48 h, read-out: Growth Percentage
SK-MEL-5 = assay: as above; details: Homo sapiens, SK-MEL-5, 48 h, read-out: Growth Percentage
UACC-257 = assay: as above; details: Homo sapiens, UACC-257, 48 h, read-out: Growth Percentage
UACC-62 = assay: as above; details: Homo sapiens, UACC-62, 48 h, read-out: Growth Percentage
IGROV1 = assay: as above; details: Homo sapiens, IGROV-1, 48 h, read-out: Growth Percentage
OVCAR-8 = assay: as above; details: Homo sapiens, OVCAR-8, 48 h, read-out: Growth Percentage
SK-OV-3 = assay: as above; details: Homo sapiens, SK-OV-3, 48 h, read-out: Growth Percentage
CAKI-1 = assay: as above; details: Homo sapiens, CAKI-1, 48 h, read-out: Growth Percentage
RXF 393 = assay: as above; details: Homo sapiens, RXF 393, 48 h, read-out: Growth Percentage
UO-31 = assay: as above; details: Homo sapiens, UO-31, 48 h, read-out: Growth Percentage
MCF7 = assay: as above; details: Homo sapiens, MCF7, 48 h, read-out: Growth Percentage
MDA-MB-231/ATCC = assay: as above; details: Homo sapiens, MDA-MB-231, 48 h, read-out: Growth Percentage
HS 578T = assay: as above; details: Homo sapiens, 48 h, read-out: Growth Percentage
[2] = read-out: growth percentages against most of the tested cells (lowest to highest)
[3] = mean over the tested cell lines, dose of 10 μM, read-out: Mean growth percentage

SMILES	activity at 10 µM (MDA-MB-468)	activity at 10 µM [1, 3]	activity at 10 µM (SNB-19)	activity at 10 µM (HL-60(TB))	activity at 10 µM (MOLT-4)	activity at 10 µM (NCI-H522)	activity at 10 µM (SW-620)	activity at 10 µM (SF-268)	activity at 10 µM (SF-539)	activity at 10 µM (U251)	activity at 10 µM (MALME-3M)	activity at 10 µM (M14)	activity at 10 µM (SK-MEL-2)	activity at 10 µM (SK-MEL-5)	activity at 10 µM (UACC-257)	activity at 10 µM (UACC-62)	activity at 10 µM (IGROV1)	activity at 10 µM (OVCAR-8)	activity at 10 µM (SK-OV-3)	activity at 10 µM (CAKI-1)	other results
Cc1[nH]c(=S)sc1C(=O)/C=C/c1cccc(F)c1 [2b, (E)-3-(3-Fluorophenyl)-1-(4-Methyl-2-Thioxo-2,3-Dihydrothiazol-5-yl)Prop-2-En-1-One]	-22.7%	47.5%	44%	12%	43.6%	63.9%	20.9%	82.3%	6.17%	17.6%	101%	78.5%	81.2%	62.2%	83.7%	58.3%	32.3%	60.5%	111%	37.7%	activity at 10 µM [1, 2]: -22.7 to 106%; activity at 10 µM (RXF 393): 23.2%; activity at 10 µM (UO-31): 44.3%; activity at 10 µM (MCF7): 7.97%; activity at 10 µM (MDA-MB-231/ATCC): 67.4%; activity at 10 µM (HS 578T): 79.8%
COc1ccc(/C=C/C(=O)c2sc(=S)[nH]c2C)cc1OC [2o, (E)-3-(3,4-Dimethoxyphenyl)-1-(4-Methyl-2-Thioxo-2,3-Dihydrothiazol-5-yl)Prop-2-En-1-One]	-0.42%	55.1%	61.9%	35.6%	73.8%	56.8%	34.9%	67.2%	29.8%	33.7%	89.6%	82.2%	68.6%	63.1%	71.4%	63.9%	69.5%	34.3%	76.9%	42%	activity at 10 µM ([1]; range over the cell lines, dose of 10 μM, read-out: growth percentages against most of the tested cells (lowest to highest)): -0.42 to 126%; activity at 10 µM (RXF 393): 48.1%; activity at 10 µM (UO-31): 49.2%; activity at 10 µM (MCF7): 28.9%; activity at 10 µM (MDA-MB-231/ATCC): 58.4%; activity at 10 µM (HS 578T): 84.7%
Cc1ccc(/C=C/C(=O)c2sc(=S)[nH]c2C)cc1 [2j, (E)-1-(4-Methyl-2-Thioxo-2,3-Dihydrothiazol-5-yl)-3-(p-Tolyl)Prop-2-En-1-One]	11.8%	63.3%	65.5%	61%	68.8%	60.2%	35.9%	86.9%	43%	60.4%	84.7%	83%	89.8%	56.1%	80.1%	59.4%	83.4%	17.3%	102%	43.4%	activity at 10 µM [1, 2]: 11.8 to 131%; activity at 10 µM (RXF 393): 55.4%; activity at 10 µM (UO-31): 46.8%; activity at 10 µM (MCF7): 28.3%; activity at 10 µM (MDA-MB-231/ATCC): 71.7%; activity at 10 µM (HS 578T): 101%
